Measurements reported in ChEMBL document CHEMBL4507276 (2021).

Tests used:
[1] = biological target: Insulin receptor (Homo sapiens) (UniProt P06213); assay: IRK(INSR)_CE Cerep selectivity data (BI); conditions: Compound concentration 20.0 uM
[2] = biological target: Phosphatidylinositol 4,5-bisphosphate 3-kinase catalytic subunit gamma isoform (Homo sapiens) (UniProt P48736); assay: PIK3CG Invitrogen selectivity data (BI); conditions: Compound concentration 3.0 uM
[3] = biological target: T1, Mitogen-activated protein kinase 13 (Homo sapiens) (UniProt O15264); assay: MAPK13 Invitrogen selectivity data (BI); conditions: Compound concentration 3.0 uM
T1 sequence (whole entry): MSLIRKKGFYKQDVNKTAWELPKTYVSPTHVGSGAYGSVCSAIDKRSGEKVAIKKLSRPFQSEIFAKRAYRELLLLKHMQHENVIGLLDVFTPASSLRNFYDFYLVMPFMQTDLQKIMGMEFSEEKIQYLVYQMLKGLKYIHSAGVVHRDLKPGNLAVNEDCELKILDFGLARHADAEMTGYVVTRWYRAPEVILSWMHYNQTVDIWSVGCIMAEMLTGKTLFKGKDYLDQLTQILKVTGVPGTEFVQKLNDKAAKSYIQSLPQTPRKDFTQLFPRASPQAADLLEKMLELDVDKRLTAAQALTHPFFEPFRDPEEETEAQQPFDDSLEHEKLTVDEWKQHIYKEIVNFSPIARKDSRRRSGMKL

[4] = biological target: Sigma non-opioid intracellular receptor 1 (Homo sapiens) (UniProt Q99720); assay: SIGMA/NS Cerep selectivity data (BI); conditions: filed as agonist, Compound concentration 20.0 uM
[5] = biological target: T2, Discoidin domain-containing receptor 2 (Homo sapiens) (UniProt Q16832); assay: DDR2 Invitrogen selectivity data (BI); conditions: Compound concentration 3.0 uM
T2 sequence (whole entry): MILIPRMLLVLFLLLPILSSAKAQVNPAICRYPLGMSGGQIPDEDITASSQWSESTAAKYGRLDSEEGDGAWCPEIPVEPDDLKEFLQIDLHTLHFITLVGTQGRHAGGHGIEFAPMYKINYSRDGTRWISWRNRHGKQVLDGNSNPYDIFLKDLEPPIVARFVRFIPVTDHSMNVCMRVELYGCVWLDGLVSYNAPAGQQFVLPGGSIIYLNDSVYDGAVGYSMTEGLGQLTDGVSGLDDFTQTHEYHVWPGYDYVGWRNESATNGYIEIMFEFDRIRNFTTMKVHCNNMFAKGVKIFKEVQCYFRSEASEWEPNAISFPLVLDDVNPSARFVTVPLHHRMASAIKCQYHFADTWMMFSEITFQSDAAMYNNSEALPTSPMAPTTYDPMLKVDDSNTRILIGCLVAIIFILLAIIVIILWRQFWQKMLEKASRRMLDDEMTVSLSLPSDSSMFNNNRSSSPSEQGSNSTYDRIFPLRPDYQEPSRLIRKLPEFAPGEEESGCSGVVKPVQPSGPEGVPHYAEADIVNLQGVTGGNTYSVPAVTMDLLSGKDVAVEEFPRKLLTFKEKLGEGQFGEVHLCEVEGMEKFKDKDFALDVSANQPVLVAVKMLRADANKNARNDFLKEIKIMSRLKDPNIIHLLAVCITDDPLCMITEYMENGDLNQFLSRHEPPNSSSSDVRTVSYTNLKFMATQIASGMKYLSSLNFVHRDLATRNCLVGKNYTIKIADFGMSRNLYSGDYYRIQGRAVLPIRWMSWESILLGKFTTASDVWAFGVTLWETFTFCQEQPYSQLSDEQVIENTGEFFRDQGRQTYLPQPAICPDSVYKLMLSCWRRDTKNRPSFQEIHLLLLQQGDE

[6] = biological target: Serine/threonine-protein kinase PLK3 (Homo sapiens) (UniProt Q9H4B4); assay: PLK3 Invitrogen selectivity data (BI); conditions: Compound concentration 3.0 uM
[7] = biological target: Gamma-aminobutyric acid receptor subunit alpha-1 (Homo sapiens) (UniProt P14867); assay: GABAA1(H) Cerep selectivity data (BI); conditions: filed as agonist, Compound concentration 20.0 uM
[8] = biological target: Leukocyte tyrosine kinase receptor (Homo sapiens) (UniProt P29376); assay: LTK Invitrogen selectivity data (BI); conditions: Compound concentration 3.0 uM
[9] = biological target: Delta-type opioid receptor (Homo sapiens) (UniProt P41143); assay: DELTA/HU Eurofins-Panlabs selectivity data (BI); conditions: Compound concentration 10.0 uM
[10] = biological target: Tyrosine-protein kinase Yes (Homo sapiens) (UniProt P07947); assay: YES1 Invitrogen selectivity data (BI); conditions: Compound concentration 3.0 uM
[11] = biological target: Adenosine receptor A2b (Homo sapiens) (UniProt P29275); assay: A2B/H Cerep selectivity data (BI); conditions: Compound concentration 20.0 uM
[12] = biological target: T3, Ephrin type-B receptor 4 (Homo sapiens) (UniProt P54760); assay: EPHB4 Invitrogen selectivity data (BI); conditions: Compound concentration 3.0 uM
T3 sequence (whole entry): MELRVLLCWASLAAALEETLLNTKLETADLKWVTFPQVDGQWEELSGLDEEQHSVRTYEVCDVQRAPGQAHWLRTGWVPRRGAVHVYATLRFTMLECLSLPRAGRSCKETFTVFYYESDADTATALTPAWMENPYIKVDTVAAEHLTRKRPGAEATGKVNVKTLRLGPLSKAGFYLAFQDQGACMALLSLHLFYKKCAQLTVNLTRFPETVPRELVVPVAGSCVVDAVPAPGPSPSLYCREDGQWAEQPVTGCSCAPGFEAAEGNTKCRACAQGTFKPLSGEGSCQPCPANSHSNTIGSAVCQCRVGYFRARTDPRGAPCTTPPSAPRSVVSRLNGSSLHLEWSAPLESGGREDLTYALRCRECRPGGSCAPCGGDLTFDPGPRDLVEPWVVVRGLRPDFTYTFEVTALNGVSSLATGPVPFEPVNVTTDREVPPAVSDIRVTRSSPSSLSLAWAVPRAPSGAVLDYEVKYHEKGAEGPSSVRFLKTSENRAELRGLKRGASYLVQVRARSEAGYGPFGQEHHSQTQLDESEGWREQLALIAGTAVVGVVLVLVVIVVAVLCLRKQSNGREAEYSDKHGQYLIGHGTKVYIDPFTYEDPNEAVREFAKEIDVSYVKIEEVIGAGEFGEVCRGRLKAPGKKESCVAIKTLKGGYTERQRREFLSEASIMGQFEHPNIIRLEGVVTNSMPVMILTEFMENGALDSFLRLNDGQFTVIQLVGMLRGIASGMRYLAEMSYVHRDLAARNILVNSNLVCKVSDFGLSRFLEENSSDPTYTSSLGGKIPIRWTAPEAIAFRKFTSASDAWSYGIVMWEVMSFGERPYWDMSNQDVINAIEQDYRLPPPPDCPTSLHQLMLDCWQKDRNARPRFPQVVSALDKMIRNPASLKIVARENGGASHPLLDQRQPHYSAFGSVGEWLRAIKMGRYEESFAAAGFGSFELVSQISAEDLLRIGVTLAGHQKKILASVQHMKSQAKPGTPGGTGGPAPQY

[13] = biological target: Focal adhesion kinase 1 (Homo sapiens) (UniProt Q05397); assay: PTK2 Invitrogen selectivity data (BI); conditions: Compound concentration 3.0 uM
[14] = biological target: cGMP-inhibited 3',5'-cyclic phosphodiesterase 3B (Homo sapiens) (UniProt Q13370); assay: PDE3B Cerep selectivity data (BI); conditions: Compound concentration 20.0 uM
[15] = biological target: Fibroblast growth factor receptor 4 (Homo sapiens) (UniProt P22455); assay: FGFR4 Invitrogen selectivity data (BI); conditions: Compound concentration 3.0 uM
[16] = biological target: Beta-2 adrenergic receptor (Homo sapiens) (UniProt P07550); assay: BETA2/HU Eurofins-Panlabs selectivity data (BI); conditions: Compound concentration 10.0 uM

Measured: residual activity

Chain of Delta-type opioid receptor (Homo sapiens) (P41143 whole entry): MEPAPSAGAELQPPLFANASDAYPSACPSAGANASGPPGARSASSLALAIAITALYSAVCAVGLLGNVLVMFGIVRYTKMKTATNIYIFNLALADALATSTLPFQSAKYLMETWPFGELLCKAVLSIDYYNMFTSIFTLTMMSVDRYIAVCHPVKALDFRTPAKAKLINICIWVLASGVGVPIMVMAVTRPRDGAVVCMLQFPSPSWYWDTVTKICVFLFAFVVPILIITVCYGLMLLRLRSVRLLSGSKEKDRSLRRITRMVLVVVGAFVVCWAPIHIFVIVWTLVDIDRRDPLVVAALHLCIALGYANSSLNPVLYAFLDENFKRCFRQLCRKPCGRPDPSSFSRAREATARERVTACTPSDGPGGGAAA
Chain of Fibroblast growth factor receptor 4 (Homo sapiens) (P22455 22-802 limits assumed): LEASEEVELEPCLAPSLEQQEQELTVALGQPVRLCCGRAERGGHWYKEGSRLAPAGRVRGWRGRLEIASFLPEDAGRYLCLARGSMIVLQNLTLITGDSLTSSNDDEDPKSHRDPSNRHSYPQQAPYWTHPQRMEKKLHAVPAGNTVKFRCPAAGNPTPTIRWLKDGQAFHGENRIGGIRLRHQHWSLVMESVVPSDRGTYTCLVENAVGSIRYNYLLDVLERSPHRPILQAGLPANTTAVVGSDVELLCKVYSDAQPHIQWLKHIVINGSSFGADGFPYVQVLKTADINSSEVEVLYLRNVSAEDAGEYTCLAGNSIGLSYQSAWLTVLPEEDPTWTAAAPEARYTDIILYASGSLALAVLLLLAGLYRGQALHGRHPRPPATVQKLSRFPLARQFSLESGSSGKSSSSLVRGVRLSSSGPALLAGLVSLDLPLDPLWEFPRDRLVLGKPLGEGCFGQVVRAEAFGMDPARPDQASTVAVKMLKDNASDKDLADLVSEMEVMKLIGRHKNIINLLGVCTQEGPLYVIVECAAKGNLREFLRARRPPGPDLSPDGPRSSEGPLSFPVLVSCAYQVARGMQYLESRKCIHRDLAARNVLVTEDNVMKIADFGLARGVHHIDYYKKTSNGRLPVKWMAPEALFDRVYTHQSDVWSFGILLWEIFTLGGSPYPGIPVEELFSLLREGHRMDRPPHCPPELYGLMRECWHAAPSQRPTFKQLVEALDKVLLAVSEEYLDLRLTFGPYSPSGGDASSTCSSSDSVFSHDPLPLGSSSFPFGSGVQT
Chain of Leukocyte tyrosine kinase receptor (Homo sapiens) (P29376 whole entry): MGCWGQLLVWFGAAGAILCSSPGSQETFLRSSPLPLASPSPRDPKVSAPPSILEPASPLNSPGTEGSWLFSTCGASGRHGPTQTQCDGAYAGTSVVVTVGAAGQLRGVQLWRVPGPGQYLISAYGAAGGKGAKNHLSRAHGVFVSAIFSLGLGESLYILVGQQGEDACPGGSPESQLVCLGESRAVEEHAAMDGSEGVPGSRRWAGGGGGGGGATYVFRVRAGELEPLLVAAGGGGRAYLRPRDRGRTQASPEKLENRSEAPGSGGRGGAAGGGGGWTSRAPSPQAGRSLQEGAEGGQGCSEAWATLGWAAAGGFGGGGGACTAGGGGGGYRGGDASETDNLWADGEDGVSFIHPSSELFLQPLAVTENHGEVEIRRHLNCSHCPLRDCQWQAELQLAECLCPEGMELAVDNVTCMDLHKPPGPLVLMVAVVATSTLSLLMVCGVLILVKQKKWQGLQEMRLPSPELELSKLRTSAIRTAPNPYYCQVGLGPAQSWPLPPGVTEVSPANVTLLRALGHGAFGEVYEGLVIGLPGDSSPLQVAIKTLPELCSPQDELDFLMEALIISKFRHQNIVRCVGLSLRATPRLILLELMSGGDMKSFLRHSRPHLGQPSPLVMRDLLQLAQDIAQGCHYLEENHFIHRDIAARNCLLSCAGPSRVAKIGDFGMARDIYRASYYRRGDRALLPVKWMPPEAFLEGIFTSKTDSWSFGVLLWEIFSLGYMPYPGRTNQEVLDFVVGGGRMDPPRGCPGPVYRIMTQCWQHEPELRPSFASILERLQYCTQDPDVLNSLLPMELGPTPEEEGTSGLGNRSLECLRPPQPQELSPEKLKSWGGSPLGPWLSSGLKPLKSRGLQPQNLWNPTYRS
Chain of Tyrosine-protein kinase Yes (Homo sapiens) (P07947 2-543 limits assumed): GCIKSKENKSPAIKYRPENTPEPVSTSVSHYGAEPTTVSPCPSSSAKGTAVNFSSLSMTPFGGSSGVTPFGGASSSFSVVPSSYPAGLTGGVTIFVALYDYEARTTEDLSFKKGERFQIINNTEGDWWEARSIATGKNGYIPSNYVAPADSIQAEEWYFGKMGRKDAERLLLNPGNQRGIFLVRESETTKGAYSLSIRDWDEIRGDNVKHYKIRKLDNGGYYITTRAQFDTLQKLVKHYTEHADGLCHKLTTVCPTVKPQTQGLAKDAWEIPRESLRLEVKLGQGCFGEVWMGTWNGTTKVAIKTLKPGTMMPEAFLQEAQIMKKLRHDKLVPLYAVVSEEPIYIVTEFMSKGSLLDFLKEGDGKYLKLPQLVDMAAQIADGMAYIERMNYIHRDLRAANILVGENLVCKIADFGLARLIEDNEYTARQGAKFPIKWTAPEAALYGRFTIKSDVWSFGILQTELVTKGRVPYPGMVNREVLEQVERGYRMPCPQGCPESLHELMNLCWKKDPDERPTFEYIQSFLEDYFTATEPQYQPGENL
Chain of Serine/threonine-protein kinase PLK3 (Homo sapiens) (Q9H4B4 whole entry, looked up): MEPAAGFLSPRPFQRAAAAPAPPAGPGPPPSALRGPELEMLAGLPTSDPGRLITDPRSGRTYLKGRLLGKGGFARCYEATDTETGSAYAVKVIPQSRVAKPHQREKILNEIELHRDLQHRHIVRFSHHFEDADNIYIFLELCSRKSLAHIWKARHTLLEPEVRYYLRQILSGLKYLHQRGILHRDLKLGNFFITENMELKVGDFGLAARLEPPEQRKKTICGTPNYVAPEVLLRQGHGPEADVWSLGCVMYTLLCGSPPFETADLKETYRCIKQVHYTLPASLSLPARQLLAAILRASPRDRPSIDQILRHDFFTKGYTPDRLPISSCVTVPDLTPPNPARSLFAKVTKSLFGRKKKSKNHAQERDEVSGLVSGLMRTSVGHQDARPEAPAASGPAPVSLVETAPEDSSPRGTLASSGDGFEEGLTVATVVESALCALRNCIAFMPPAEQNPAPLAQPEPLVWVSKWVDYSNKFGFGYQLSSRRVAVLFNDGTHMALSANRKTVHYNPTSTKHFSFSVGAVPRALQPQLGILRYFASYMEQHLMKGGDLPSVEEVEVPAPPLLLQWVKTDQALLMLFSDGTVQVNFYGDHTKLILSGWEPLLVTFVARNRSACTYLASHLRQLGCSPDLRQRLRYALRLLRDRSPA
Chain of Insulin receptor (Homo sapiens) (P06213 28-758 limits assumed): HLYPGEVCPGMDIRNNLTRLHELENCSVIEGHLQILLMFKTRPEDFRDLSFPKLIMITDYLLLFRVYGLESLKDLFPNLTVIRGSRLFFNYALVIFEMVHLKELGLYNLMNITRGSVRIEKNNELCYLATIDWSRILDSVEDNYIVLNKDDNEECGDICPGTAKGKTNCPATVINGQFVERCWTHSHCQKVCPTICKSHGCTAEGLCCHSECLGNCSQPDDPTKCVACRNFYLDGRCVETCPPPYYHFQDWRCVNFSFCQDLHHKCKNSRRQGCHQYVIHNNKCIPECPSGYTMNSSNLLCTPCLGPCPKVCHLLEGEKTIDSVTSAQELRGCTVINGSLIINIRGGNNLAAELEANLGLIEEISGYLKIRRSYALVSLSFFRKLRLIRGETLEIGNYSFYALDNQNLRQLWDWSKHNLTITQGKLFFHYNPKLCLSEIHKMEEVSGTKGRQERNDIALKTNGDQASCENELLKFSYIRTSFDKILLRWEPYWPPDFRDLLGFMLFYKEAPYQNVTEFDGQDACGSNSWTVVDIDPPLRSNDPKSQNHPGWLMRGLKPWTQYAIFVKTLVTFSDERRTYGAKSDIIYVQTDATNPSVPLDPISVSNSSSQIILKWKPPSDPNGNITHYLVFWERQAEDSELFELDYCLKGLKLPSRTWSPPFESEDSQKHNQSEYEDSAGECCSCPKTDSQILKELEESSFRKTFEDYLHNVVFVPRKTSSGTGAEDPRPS
Chain of Insulin receptor (Homo sapiens) (P06213 763-1382 limits assumed): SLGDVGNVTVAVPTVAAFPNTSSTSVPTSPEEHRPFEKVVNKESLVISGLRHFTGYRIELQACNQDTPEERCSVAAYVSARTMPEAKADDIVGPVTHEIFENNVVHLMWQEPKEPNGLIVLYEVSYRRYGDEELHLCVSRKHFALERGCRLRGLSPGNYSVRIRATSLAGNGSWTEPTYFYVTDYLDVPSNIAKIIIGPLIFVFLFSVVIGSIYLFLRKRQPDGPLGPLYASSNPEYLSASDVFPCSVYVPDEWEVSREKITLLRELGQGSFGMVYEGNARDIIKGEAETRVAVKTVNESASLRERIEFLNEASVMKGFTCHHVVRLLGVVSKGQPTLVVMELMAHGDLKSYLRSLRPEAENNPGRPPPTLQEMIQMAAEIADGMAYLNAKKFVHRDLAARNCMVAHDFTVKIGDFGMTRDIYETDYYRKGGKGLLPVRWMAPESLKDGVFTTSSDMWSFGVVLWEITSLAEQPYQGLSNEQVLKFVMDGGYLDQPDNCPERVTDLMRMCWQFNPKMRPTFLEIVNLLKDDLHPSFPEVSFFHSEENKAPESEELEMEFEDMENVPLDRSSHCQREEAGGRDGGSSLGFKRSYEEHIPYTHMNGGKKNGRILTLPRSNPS
Chain of Gamma-aminobutyric acid receptor subunit alpha-1 (Homo sapiens) (P14867 whole entry): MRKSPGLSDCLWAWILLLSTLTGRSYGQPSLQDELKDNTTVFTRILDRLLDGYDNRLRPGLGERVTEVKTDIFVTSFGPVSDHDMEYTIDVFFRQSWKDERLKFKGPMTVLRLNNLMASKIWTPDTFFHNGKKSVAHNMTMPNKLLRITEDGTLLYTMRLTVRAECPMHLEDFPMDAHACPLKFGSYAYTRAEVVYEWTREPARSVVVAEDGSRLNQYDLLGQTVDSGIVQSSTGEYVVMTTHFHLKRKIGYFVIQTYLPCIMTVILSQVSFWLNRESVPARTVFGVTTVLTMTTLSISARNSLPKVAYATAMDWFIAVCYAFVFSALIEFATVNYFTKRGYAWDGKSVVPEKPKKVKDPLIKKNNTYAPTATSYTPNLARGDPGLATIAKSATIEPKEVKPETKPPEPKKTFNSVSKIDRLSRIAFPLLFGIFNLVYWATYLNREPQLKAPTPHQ

CN(C)C(=O)Cn1cc(-c2nc([C@@](C)(c3ccc(-c4cnc(N)nc4)cc3)C3CC3)no2)cn1 [BI 665915]
inactive: [1] 94% | [2] 104% | [3] 96.5% | [4] 99% | [5] 96% | [6] 98% | [7] 105% | [8] 96.5% | [9] 96% | [10] 88.5% | [11] 83% | [12] 101% | [13] 87.5% | [14] 95% | [15] 96.5% | [16] 101%
